Measurements taken from patent publication US20080138284A1, “Novel Peptides That Promote Lipid Efflux” (Lipid Sciences, Inc., priority 2006, published 2008).

What was measured:
[1] = system: J774 mouse macrophage cells (ABCA1); assay: ABCA1 mediated cholesterol efflux; format: cell-based; conditions: samples minus blank, Apo A-I @ 20 μg/ml
Description: (§1) The methods employed in this study have been described in U.S. Pat. Nos. 7,029,863, 7,060,452, U.S. Patent Application Publication No. 2005/0191715, and in Moya et al., Arteriosclerosis & Thrombosis 1994:14:1056-1065 and Liu et al., J. Biol. Chem., 2003:278(44), 42976-42984. SR-B1 mediated cholesterol efflux is examined in FU5AH rat hepatoma cells and ABCA1 mediated cholesterol efflux is examined in J774 mouse macrophage cells as described in these references.

[2] = system: HeLa cells stably transfected with human ABCA1 cDNA (ABCA1 cells); conditions: as previously described (Hamon et al.; Remaley et al.); cited from earlier work
[3] = system: HeLa cells transfected with only a hygromycin-resistant control plasmid (control cells); assay: Cholesterol and phospholipid efflux from control HeLa cells (incl. time course); format: cell-based, human; conditions: 30 hour efflux period
Experimental: (§2) HeLa cells stably transfected with human ABCA1 cDNA (ABCA1 cells) and HeLa cells transfected with only a hygromycin-resistant control plasmid (control cells) are produced and grown in α-modified Eagle's medium (aMEM) plus 10% fetal calf serum, as described by Remaley et al. (Biochem. Biophys. Res. Commun. 280:818-823, 2001). Cholesterol and phospholipid efflux is performed for 18 hours on noncholesterol-loaded cells radiolabeled with either cholesterol or choline (Remaley et al., Arterioscler. Thromb. Vasc. Biol. 17:1813-1821, 1997). Percentage efflux is calculated after subtracting the radioactive counts in the blank media (aMEM plus 1 mg/ml of BSA), and expressed as the percent of total radioactive counts removed from the cells during the efflux period.
(§3) ABCA1 cells are used to assess the ability of apoA-I and synthetic peptides to efflux lipid from cells. […] The peptides of the present invention efflux approximately 2- to 4-fold more cholesterol and phospholipid from ABCA1 cells than from control cells. Both the peptides of the present invention and apoA-I began to show saturation for lipid efflux at approximately the same protein concentration of 10 μg/ml.
Cholesterol efflux from ABCA1 cells to apoA-I is first detectable after 2 hours and increases throughout the 30 hour efflux period. […] Overall, the kinetics for cholesterol efflux to peptides of the present invention from ABCA1 cells is similar to that of apoA-I, except that cholesterol efflux is first detectable after 30 minutes.

[4] = system: HeLa cells transfected with only a hygromycin-resistant control plasmid (control cells); conditions: as previously described (Hamon et al.; Remaley et al.); cited from earlier work
[5] = system: CD11b; assay: CD11b expression in stimulated monocytes by flow cytometry; format: cell-based; conditions: human monocytes, 1 μmol/L PMA, 20 μg/ml apoA-1 or peptide
Experimental: Monocyte Isolation Peripheral whole blood (PWB) is drawn from healthy consenting individuals into syringes containing sodium citrate (final concentration—19.2 mM). Resting human monocytes are isolated from PWB by density centrifugation with Lymphoprep (Axis Shield). Mononuclear cells (MNCs) are collected and monocytes are further separated to purity using the Dynal negative isolation kit (Invitrogen). Monocytes are resuspended in phosphate buffered saline (PBS) and cell number is determined counting cell suspension on an automated hematology analyzer (Sysmex, KX-21N, USA). Purification of HDL and apoA-1 Human plasma apoA-1 is isolated as previously described and the purity determined using total mass spectrometry. Flow Cytometry 100 μL of monocytes are stimulated with either 1 μmol/L phorbol-myristate-acetate (PMA) or 1 μg/ml lipopolysaccharide (LPS) (Sigma, Australia) in the presence or absence of apoA-1 (20 μg/ml), or 20 μg/ml of the test peptides of the present invention. SEQ ID NOs: 72, 80, 89, 354, 355 and 372 are also tested individually. The cells are incubated with the FITC conjugated antibody to either the active epitope of CD11b (eBiosciences, USA, Clone CBRM1/5) or total CD11b (Serotec, USA, Clone ICRF44) for 15 min at 37° C. Cells are then fixed with 4% paraformaldehyde. Samples are controlled for by using the appropriately matched isotype matched negative control (FITC-anti-mouse IgG) (Serotec, USA, Clone W3/25). CD11b expression is measured by flow cytometry using FACS Calibur (Becton Dickinson). Analysis is conducted using the Cell Quest Pro software. Statistical Analysis Values are presented as the mean ±SD or percentage of control ±SD. FACS results are analyzed for statistical significance using one-way ANOVA followed by Bonferroni post-hoc test. Significance is accepted at P<0.05. […] The combined effects of increasing cholesterol efflux and decreasing inflammation indicate that the peptides of the present invention effectively mimic the function of Apo AI and will decrease atherosclerosis.

[6] = system: HeLa cells stably transfected with human ABCA1 cDNA (ABCA1 cells); assay: Cholesterol and phospholipid efflux from ABCA1-transfected HeLa cells (incl. time course); format: cell-based
Experimental: as §2, §3
Cholesterol efflux from ABCA1 cells to apoA-I is first detectable after 2 hours and increases throughout the 30 hour efflux period. […]

[7] = system: FU5AH rat hepatoma cells (SR-B1); assay: SR-B1 mediated cholesterol efflux; format: cell-based; conditions: samples minus blank; Apo A-I @ 20 μg/ml
Description: as §1

Substance: apolipoprotein A-I [Apo A-I, reference compound]
- +ABCA1 Cells (efflux) [1]: 20.682 + 0.724
- −ABCA1 Cells (efflux) [1]: 1.713 ± 0.409
- ABCA1 Mediated Efflux ([1]; equals +ABCA1 minus −ABCA1 cells): 18.97 % Per 4 h
- efflux of cholesterol and phospholipid to apoA-I after transfection with ABCA1 [2]: do so after transfection with ABCA1
- cholesterol efflux to apoA-I from control cells, time course [3]: no significant increase above background
- efflux of cholesterol and phospholipid to apoA-I from control cells [4]: do not efflux significant amounts
- PMA induced CD11b expression [5]: significantly reduce
- protein concentration at which lipid efflux begins to show saturation [6]: ~10 µg/mL
- time after which cholesterol efflux from ABCA1 cells is first detectable ([6]; 30 hour efflux period): 2 h
- SR-BI Mediated Efflux [7]: 0.26 % Per 4 h
